Results: the supplement of paper PMC8967900

Tests used:
Assay in all cases: selective drug sensitivity score (sDSS, relative to normal bone marrow) (sDSS (score)); higher = more potent and effective on the cell line relative to normal bone marrow cells
Conditions in all cases: 72 h
LC4-1 = tested on: LC4-1
MN-60 = tested on: MN-60
DND-41 = tested on: DND-41
NALM-6 = tested on: NALM-6
SEM cells = tested on: SEM cells
HPB-ALL = tested on: HPB-ALL
MHH-CALL-4 = tested on: MHH-CALL-4
SUP-B15 = tested on: SUP-B15
COG-LL-332h = tested on: COG-LL-332h
TANOUE = tested on: TANOUE
CCRF-HSB2 = tested on: CCRF-HSB2
COG-LL-319h = tested on: COG-LL-319h
CCRF-CEM = tested on: CCRF-CEM
KASUMI-10 = tested on: KASUMI-10
MOLT-14 = tested on: MOLT-14
NALL-1 = tested on: NALL-1
NALM-16 = tested on: NALM-16
REH = tested on: REH
KASUMI-2 = tested on: KASUMI-2
MOLT-16 = tested on: MOLT-16
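Also: ALL cell lines in 384-well plates, five doses spanning 10,000-fold, each plate scaled between vehicle and 100 µmol/L benzalkonium chloride controls, sDSS an adapted area-under-curve metric.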

C[C@@H]1CN(C(=O)c2ccc(NC(=O)c3cc(O[C@H](C)c4c(Cl)ccc(F)c4Cl)c(N)nn3)cc2)C[C@H](C)N1 [Ensartinib] (top concentration 1000 nM)
selective drug sensitivity score (LC4-1): -1.44
selective drug sensitivity score (MN-60): -2.84
selective drug sensitivity score (DND-41): -2.84
selective drug sensitivity score (NALM-6): -0.44
selective drug sensitivity score (SEM cells): -0.34
selective drug sensitivity score (HPB-ALL): -2.84
selective drug sensitivity score (MHH-CALL-4): -2.84
selective drug sensitivity score (SUP-B15): 3.86
selective drug sensitivity score (COG-LL-332h): 2.76
selective drug sensitivity score (TANOUE): -2.84
selective drug sensitivity score (CCRF-HSB2): -0.64
selective drug sensitivity score (COG-LL-319h): -2.64
selective drug sensitivity score (CCRF-CEM): -0.34
selective drug sensitivity score (KASUMI-10): -2.84
selective drug sensitivity score (MOLT-14): -1.74
selective drug sensitivity score (NALL-1): -2.84
selective drug sensitivity score (NALM-16): -2.14
selective drug sensitivity score (REH): -2.24
selective drug sensitivity score (KASUMI-2): -1.54
selective drug sensitivity score (MOLT-16): -0.74

CCc1c(C(=O)C(N)=O)c2c(OCC(=O)O)cccc2n1Cc1ccccc1 [Varespladib] (top concentration 10000 nM)
selective drug sensitivity score (LC4-1): -0.84
selective drug sensitivity score (MN-60): -0.84
selective drug sensitivity score (DND-41): -0.84
selective drug sensitivity score (NALM-6): -0.84
selective drug sensitivity score (SEM cells): -0.84
selective drug sensitivity score (HPB-ALL): -0.84
selective drug sensitivity score (MHH-CALL-4): 3.56
selective drug sensitivity score (SUP-B15): -0.84
selective drug sensitivity score (COG-LL-332h): -0.64
selective drug sensitivity score (TANOUE): -0.84
selective drug sensitivity score (CCRF-HSB2): 0.36
selective drug sensitivity score (COG-LL-319h): -0.84
selective drug sensitivity score (CCRF-CEM): -0.84
selective drug sensitivity score (KASUMI-10): -0.84
selective drug sensitivity score (MOLT-14): -0.84
selective drug sensitivity score (NALL-1): -0.84
selective drug sensitivity score (NALM-16): 0.56
selective drug sensitivity score (REH): -0.84
selective drug sensitivity score (KASUMI-2): -0.84
selective drug sensitivity score (MOLT-16): 1.76

C[C@H]1CN(C2COC2)CCN1c1ccc(Nc2cc(-c3ccnc(N4CCn5c(cc6c5CC(C)(C)C6)C4=O)c3CO)cn(C)c2=O)nc1 [GDC-0853] (top concentration 1000 nM)
selective drug sensitivity score (LC4-1): 0
selective drug sensitivity score (MN-60): 0
selective drug sensitivity score (DND-41): 0
selective drug sensitivity score (NALM-6): 0
selective drug sensitivity score (SEM cells): 0
selective drug sensitivity score (HPB-ALL): 0.4
selective drug sensitivity score (MHH-CALL-4): 0.2
selective drug sensitivity score (SUP-B15): 0
selective drug sensitivity score (COG-LL-332h): 0
selective drug sensitivity score (TANOUE): 0
selective drug sensitivity score (CCRF-HSB2): 0
selective drug sensitivity score (COG-LL-319h): 2.8
selective drug sensitivity score (CCRF-CEM): 0
selective drug sensitivity score (KASUMI-10): 0
selective drug sensitivity score (MOLT-14): 0
selective drug sensitivity score (NALL-1): 0
selective drug sensitivity score (NALM-16): 0
selective drug sensitivity score (REH): 0.2
selective drug sensitivity score (KASUMI-2): 0
selective drug sensitivity score (MOLT-16): 0

CCC1(c2ccc(N)cc2)CCC(=O)NC1=O (stereo not given) [Aminoglutethimide] (top concentration 10000 nM)
selective drug sensitivity score (LC4-1): 0
selective drug sensitivity score (MN-60): 0
selective drug sensitivity score (DND-41): 0
selective drug sensitivity score (NALM-6): 0
selective drug sensitivity score (SEM cells): 0.3
selective drug sensitivity score (HPB-ALL): 0.4
selective drug sensitivity score (MHH-CALL-4): 0.5
selective drug sensitivity score (SUP-B15): 0
selective drug sensitivity score (COG-LL-332h): 0
selective drug sensitivity score (TANOUE): 0
selective drug sensitivity score (CCRF-HSB2): 0
selective drug sensitivity score (COG-LL-319h): 0
selective drug sensitivity score (CCRF-CEM): 0
selective drug sensitivity score (KASUMI-10): 0
selective drug sensitivity score (MOLT-14): 0
selective drug sensitivity score (NALL-1): 0
selective drug sensitivity score (NALM-16): 0
selective drug sensitivity score (REH): 0.6
selective drug sensitivity score (KASUMI-2): 0
selective drug sensitivity score (MOLT-16): 0

COc1cc2c(Nc3ccc(Cl)c(Cl)c3F)ncnc2cc1OC[C@@H]1C[C@@H]2CN(C)C[C@@H]2C1 [Tesevatinib] (top concentration 1000 nM)
selective drug sensitivity score (LC4-1): -1.16
selective drug sensitivity score (MN-60): 0.24
selective drug sensitivity score (DND-41): 1.44
selective drug sensitivity score (NALM-6): -0.16
selective drug sensitivity score (SEM cells): 1.44
selective drug sensitivity score (HPB-ALL): 0.64
selective drug sensitivity score (MHH-CALL-4): 2.34
selective drug sensitivity score (SUP-B15): -1.36
selective drug sensitivity score (COG-LL-332h): -0.86
selective drug sensitivity score (TANOUE): -1.36
selective drug sensitivity score (CCRF-HSB2): 3.44
selective drug sensitivity score (COG-LL-319h): -1.36
selective drug sensitivity score (CCRF-CEM): 1.34
selective drug sensitivity score (KASUMI-10): -1.06
selective drug sensitivity score (MOLT-14): -0.56
selective drug sensitivity score (NALL-1): -0.06
selective drug sensitivity score (NALM-16): -1.36
selective drug sensitivity score (REH): -1.36
selective drug sensitivity score (KASUMI-2): -1.36
selective drug sensitivity score (MOLT-16): 1.74
